Experimental data: PMC6668147, “Ancient role of vasopressin/oxytocin-type neuropeptides as regulators of feeding revealed in an echinoderm” (BMC Biology, 2019)
“Also recorded” adds a separate entry of the source. Where two headings read alike, the source gives them in different places.

Columns and labels:
[1] = tested on: A. rubens VP/OT-type receptor; assay: Ca2+-induced luminescence in CHO-K1/G5A cells expressing the A. rubens VP/OT-type receptor and Gα16; format: cell-based, Asterias rubens; conditions: 10^−4 M; Wilcoxon signed-rank test vs basal media; n = 9
Description: A pBluescript SKII (+) vector containing the A. rubens VP/OT-type receptor cDNA as an insert (see above) was used as a template to amplify by PCR the open reading frame of the VP/OT-type receptor. To accomplish this, the oligonucleotides 5′-ggatccCACCATGACGCCCTC-3′ (upstream) and 5′-cccgggCTACATGTGAGCGGAAGCA-3′ (downstream) were used as primers and the PCR product was subcloned into the eukaryotic expression vector pcDNA 3.1+, which had been cut with the restriction enzymes BamHI and […]. For the upstream primer, a partial Kozak translation initiation sequence (CACC) was introduced before the start codon to optimise the initiation of translation.
For this assay, Chinese hamster ovary (CHO-K1) cells stably expressing the Ca^2+-sensitive bioluminescent GFP-aequorin fusion protein—G5A (CHO-K1/G5A cells) are co-transfected with plasmids containing a G-protein coupled receptor cDNA insert and plasmids containing an insert encoding the promiscuous G-protein Gα16. If a candidate ligand activates the expressed receptor, the promiscuous Gα16 protein triggers the activation of the IP3 signalling pathway, causing an increase in intracellular Ca^2+ and luminescence. […] Asterotocin at concentrations ranging from 10^−4 to 10^−12 M (n = 3) was pipetted into the wells of clear-bottomed 96-well plates (Sigma-Aldrich), then a FLUOstar Omega Plate Reader (BMG LABTECH) was used to inject a fixed amount of transfected CHO-K1 cells into each well sequentially, and luminescence was measured for a 35-s period after injection. Luminescence measurements were normalised to the maximum response obtained in each experiment (100%) and the response obtained with the vehicle media (0%). […] The half maximal effective concentration (EC50) was calculated from the dose-response curve in Prism 6.0c. […] A Wilcoxon signed-rank test was performed to compare luminescence of cells exposed to asterotocin, vasopressin, oxytocin and NGFFYamide (at 10^−4 M) with luminescence of cells in basal media (control).

[2] = tested on: mammals; conditions: cited from earlier work
Description: Physiological processes and behaviour are controlled and regulated by a huge variety of neuronally secreted peptide signalling molecules (neuropeptides), which typically exert their effects on target cells by binding to cognate G-protein coupled receptors (GPCRs). Amongst the most intensely studied neuropeptides are vasopressin (VP) and oxytocin (OT). VP and OT are structurally related neuropeptides that were originally discovered based on their peripheral actions as pituitary hormones in mammals. VP is a cyclic and amidated nonapeptide (CYFQNCPRG-NH2; with a disulphide bridge betwee ...

[3] = tested on: mammals; conditions: cited from earlier work; remark: listed apart in the source
Description: Our discovery that asterotocin has such striking feeding-related effects in starfish provides a basis to examine if VP/OT-type neuropeptides are likewise involved in the regulation of feeding-associated processes in other taxa. Currently, little is known about the physiological roles of VP/OT-type neuropeptides in other echinoderms. […] This effect of echinotocin as a muscle contractant is consistent with the myoexcitatory eff ...

[4] = tested on: cardiac stomach preparations from A. rubens; assay: Relaxation of in vitro cardiac stomach preparations; design: species or system Asterias rubens; conditions: 10^−7 M, KCl pre-contraction
Method: To investigate if asterotocin affects muscle contractility in A. rubens, synthetic asterotocin (custom synthesised by PPR Ltd., Fareham, Hampshire, UK) was tested on three in vitro preparations: the cardiac stomach, apical muscle and tube feet. These three preparations have been used to examine the effects of other neuropeptides, and the methods employed have been described in detail previously. […] Therefore, the effects of asterotocin on cardiac stomach and apical muscle preparations were examined in more detail.
Cardiac stomach preparations from 16 starfish (8–13.5 cm in diameter) were incubated at 11 °C in an aerated organ bath containing artificial seawater with 3 × 10^−2 M added KCl. This induces sustained contraction of the cardiac stomach, which facilitates recording of the effects of neuropeptides that act as muscle relaxants. The contractile state of preparations was monitored using a high-grade isotonic transducer (model 60-3001; Harvard Apparatus, Cambridge, UK) connected to a Goerz SE 120 chart recorder (Recorderlab, Sutton, Surrey, UK) or using a high-grade isotonic transducer (MLT0015; ADInstruments Ltd., Oxford, UK) connected to data acquisition hardware (PowerLab 2/26, ADInstruments Ltd.) via a bridge amplifier (FE221 Bridge Amp, ADInstruments Ltd.). The output from the PowerLab was recorded using LabChart (v8.0.7) software installed on a laptop computer (Lenovo E540, Windows 7 Professional). To obtain representative images of the effects of asterotocin, traces were exported from LabChart into Adobe Photoshop and the function ‘Select and Mask’ was utilised to remove the background grid pattern.
The percentage relaxation at each concentration was calculated relative to the maximal relaxing effect produced by asterotocin in each preparation. […] For these experiments, the effect of 10^−7 M S2 was defined as 100%, and the effect of 10^−7 M asterotocin was calculated as a percentage of the effect of 10^−7 M S2. The relaxing effects of asterotocin and S2 on cardiac stomach preparations were analysed statistically using the Mann-Whitney U test.

[5] = tested on: A. rubens; assay: In vivo cardiac stomach eversion, dose dependence; design: species or system Asterias rubens; conditions: 10 μl of 10^−3 M S2 into perivisceral coelom; n = 5
Method: During feeding in A. rubens, the cardiac stomach is everted out of the mouth over the digestible soft tissue of prey (e.g. mussels), and to accomplish this, the cardiac stomach must be relaxed. […] First, a pilot experiment was performed using 30 starfish (diameter 6.4–7.5 cm) that had been starved for 1 week to normalise their physiological status. Then animals were injected with different doses of asterotocin (10 μl of 10^−6–10^−3 M; n = 5 for each dose) or with 10 μl of water (negative control; n = 5) or with 10 μl of 10^−3 M S2 (positive control; n = 5). The animals were injected at a site located in the aboral body wall of an arm proximal to the junction with the central disc and adjacent to the madreporite. Care was taken to ensure that the tip of a Hamilton syringe used for injections was pushed through the body wall into the perivisceral coelom but not too deep so as to avoid injecting into the digestive organs. The doses of asterotocin injected were informed by our analysis of the volume of the perivisceral coelomic fluid in A. rubens. […] Following injection, the starfish were placed in a glass vessel containing seawater so that the mouth of the animal could be observed from below.

[6] = tested on: A. rubens; assay: Body posture / arm flexion after injection; format: in vivo, Asterias rubens; conditions: S2, compared with asterotocin
[7] = tested on: A. rubens; assay: Righting behaviour following 4-week starvation; format: in vivo, Asterias rubens
Method: To examine the specificity of the effects of asterotocin on starfish righting behaviour, an experiment was performed where the righting time of starfish (5.5–9.6 cm in diameter; starved for 4 weeks prior to testing) was measured before injection (n = 60; pooled from the three treatment groups) and after injection with 5 μl 10^−3 M asterotocin (n = 20) or 5 μl 10^−3 M S2 (n = 20) or 5 μl distilled water (n = 20). The time taken to right in seconds as well as the percentage difference between righting with and without injection was calculated. The percentage time difference between righting with and without injection in water-injected, asterotocin-injected and S2-injected animals was determined and plotted as a separated box and whiskers graph in Prism 6 (GraphPad 6). The effect of neuropeptides on righting behaviour was analysed statistically using the Mann-Whitney U test or a one-way ANOVA test with a post hoc Dunnett’s multiple comparisons test.

[8] = tested on: cardiac stomach preparations from A. rubens; conditions: in vitro; cited from earlier work
Method: Therefore, it was of interest here to investigate the effects of asterotocin on muscle preparations from A. rubens. […] The percentage relaxation at each concentration was calculated relative to the maximal relaxing effect produced by asterotocin in each preparation. To enable the assessment of the magnitude of the relaxing effect of asterotocin on cardiac stomach, experiments were performed to compare the effect asterotocin with the effect of the neuropeptide SALMFamide-2 (S2; […]-NH2), which has been shown previously to cause relax ...

[9] = tested on: A. rubens; conditions: cited from earlier work
Description: Starfish feed by firstly prying apart the bivalve shells of prey (e.g. mussels) with their tube feet and then […] cardiac stomach out of their mouth and over the exposed digestible soft tissues. In order for the cardiac stomach to be everted, it must be in a relaxed state, and therefore, neuropeptides that cause cardiac stomach relaxation in vitro are potential mediators of eversion in vivo.

[10] = tested on: insects; conditions: cited from earlier work
Description: Thus, the evolutionary origin of at least 30 neuropeptide families (including VP/OT-type) can be traced back to the bilaterian common ancestor of deuterostomes (vertebrates and invertebrate chordates, hemichordates, echinoderms) and protostomes (e.g. arthropods, nematodes, molluscs, annelids). Definitive evidence of the antiquity of VP/OT-type neuropeptides was first obtained with the purification and sequencing of VP/OT-type neuropeptides from insect and molluscan species [[8], ...

[11] = tested on: octopus rectum; conditions: in vitro; cited from earlier work
Description: What about in the protostome branch of the Bilateria? […] In the cephalopod mollusc Octopus vulgaris, the VP/OT-type signalling system has been characterised in detail and comprises two VP/OT-type neuropeptides, octopressin (OP) and cephalotocin (CT), and three cognate receptors (OPR, CTR1, CTR2). Furthermore, OP is expressed in the regions of the octopus nervous system involved in the control o ...

## CYFQNCPRG-NH2 (disulfide) [vasopressin, human vasopressin; cyclic amidated nonapeptide (…-NH2)]
[1]
  receptor activation at highest concentration tested, in words: did not cause significant receptor activation; also recorded: not significantly higher than the basal media control
[2]
  blood pressure, in words: increases blood pressure
  diuresis, in words: acts as an antidiuretic

## CYIQNCPLG-NH2 (disulfide) [oxytocin, human oxytocin (…-NH2)]
[1]
  receptor activation at highest concentration tested, in words: did not cause significant receptor activation; also recorded: not significantly higher than the basal media control
[3]
  effect on feeding, in words: inhibits feeding
[2]
  uterine contraction and lactation, in words: causes uterine contraction and lactation

## NGFFYamide
[1]
  receptor activation at highest concentration tested, in words: did not cause significant receptor activation; also recorded: not significantly higher than the basal media control

## SGPYSFNSGLTF-NH2 [S2, SALMFamide neuropeptide S2 (…-NH2)]
[4]; replicate 1
  relaxing effect, S2 effect defined as 100%: 100%
[4]; replicate 2
  relaxing effect, S2 effect defined as 100%: 100%
[4]; replicate 3
  relaxing effect, S2 effect defined as 100%: 100%
[4]; replicate 4
  relaxing effect, S2 effect defined as 100%: 100%
[4]; replicate 5
  relaxing effect, S2 effect defined as 100%: 100%
[5]
  cardiac stomach eversion, in words: cardiac stomach eversion was not observed; also recorded: stomach eversion was not observed in any of the animals
[6]
  posture change, in words: does not induce the changes in posture
[7]; 5 μl of 10^−3 M S2, n = 20
  significance of righting time vs water-injected, in words: not significantly different
[7]; 5 μl of 10^−3 M, mean ± SEM, n = 20, water 341 ± 59 s, non-injected 345 ± 35 s
  mean righting time: 312 ± 40 s
[7]; 5 μl of 10^−3 M, n = 20, water − 1.8 ± 13%
  mean percentage righting time difference with vs without injection: 15 ± 12%
[8]
  effect on cardiac stomach preparations, in words: acts as a relaxant of cardiac stomach preparations; also recorded: cause relaxation of A. rubens cardiac stomach preparations in vitro
[9]; 100 μl of 10^−3 M into perivisceral coelom
  cardiac stomach eversion, in words (earlier work): triggers cardiac stomach eversion
[9]; injected in vivo
  cardiac stomach eversion, in words (earlier work): induces cardiac stomach eversion when injected in vivo

## inotocin
[10]
  role in urine production, in words: VP-like role in regulating urine production

## octopressin
[11]
  effect on rectum, in words: myoexcitatory effects on in vitro preparations of the octopus rectum
